Calls of active or inactive are those of the source.
Assays:
[1] = target: T1, Corticotropin-releasing factor receptor 2/Corticotropin-releasing factor-binding protein (Homo sapiens, UniProt P24387+Q13324); assay: Dose Response confirmation of uHTS hits for small molecule antagonists of the CRF-binding protein and CRF-R2 receptor complex.; format: functional; conditions: read-out: IC50_Mean
T1 sequence (Q13324 whole entry): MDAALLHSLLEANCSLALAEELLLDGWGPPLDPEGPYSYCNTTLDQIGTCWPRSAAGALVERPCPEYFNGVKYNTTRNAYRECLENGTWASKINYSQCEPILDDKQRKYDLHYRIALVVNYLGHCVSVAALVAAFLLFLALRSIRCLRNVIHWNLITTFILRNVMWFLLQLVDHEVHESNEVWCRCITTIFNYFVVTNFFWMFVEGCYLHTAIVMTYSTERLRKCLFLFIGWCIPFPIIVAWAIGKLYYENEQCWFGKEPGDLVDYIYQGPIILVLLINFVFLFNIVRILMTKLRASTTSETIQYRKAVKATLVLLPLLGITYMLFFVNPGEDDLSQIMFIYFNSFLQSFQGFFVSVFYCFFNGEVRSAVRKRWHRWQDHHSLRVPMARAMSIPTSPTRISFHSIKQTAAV
T1 sequence (P24387 whole entry): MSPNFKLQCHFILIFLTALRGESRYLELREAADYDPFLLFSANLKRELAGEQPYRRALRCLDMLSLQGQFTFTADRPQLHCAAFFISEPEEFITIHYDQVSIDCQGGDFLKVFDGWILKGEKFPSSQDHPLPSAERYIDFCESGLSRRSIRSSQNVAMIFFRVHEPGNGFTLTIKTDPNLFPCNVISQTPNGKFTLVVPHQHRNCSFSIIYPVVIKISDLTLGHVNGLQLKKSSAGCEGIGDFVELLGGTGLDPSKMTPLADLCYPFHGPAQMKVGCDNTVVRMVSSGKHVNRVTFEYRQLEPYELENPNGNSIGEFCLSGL

[2] = target: T1, Corticotropin-releasing factor receptor 2/Corticotropin-releasing factor-binding protein; assay: activators of CRF receptor 2 with binding protein – uHTS hits, confirmation (AID 602473); format: functional; conditions: read-out: EC50_Mean
[3] = target: Cytochrome P450 2C9 (Homo sapiens, UniProt P11712)
[4] = target: Cytochrome P450 2D6 (Homo sapiens, UniProt P10635);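 further: CYP2D6 member of a cytochrome P450 panel assay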
[5] = target: Cytochrome P450 3A4 (Homo sapiens, UniProt P08684);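 further: CYP3A4 tested as one member of a cytochrome P450 panel screen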
[6] = target: T2, Cytochrome P450 1A2 (Homo sapiens, UniProt P05177);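 further: PubChem cytochrome P450 panel assay, CYP1A2 panel member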
T2 sequence (P05177 whole entry): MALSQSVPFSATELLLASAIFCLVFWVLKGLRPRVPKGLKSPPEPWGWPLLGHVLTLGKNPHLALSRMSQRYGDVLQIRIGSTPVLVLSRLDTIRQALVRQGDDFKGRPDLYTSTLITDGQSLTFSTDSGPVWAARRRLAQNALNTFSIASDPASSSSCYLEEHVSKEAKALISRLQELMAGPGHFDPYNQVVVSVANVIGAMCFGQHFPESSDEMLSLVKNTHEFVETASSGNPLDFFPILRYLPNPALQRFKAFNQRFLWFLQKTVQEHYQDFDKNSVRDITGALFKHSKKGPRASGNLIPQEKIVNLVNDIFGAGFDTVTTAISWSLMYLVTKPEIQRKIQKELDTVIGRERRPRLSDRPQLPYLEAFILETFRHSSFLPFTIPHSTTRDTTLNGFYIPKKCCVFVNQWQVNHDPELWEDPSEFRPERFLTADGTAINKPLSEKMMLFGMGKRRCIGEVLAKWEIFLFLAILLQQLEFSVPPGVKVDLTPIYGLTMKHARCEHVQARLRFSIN

[7] = target: Cytochrome P450 2C19 (Homo sapiens, UniProt P33261); assay: Cytochrome panel assay with activity outcomes. Panel member name: p450-cyp2c19 Compounds with AC50 equal or less than 10 uM are considered active; format: functional; conditions: read-out: AC50
[8] = Luminescence Cell-Based Dose Confirmation HTS to Identify Activators of 5'UTR Stem-Loop Driven Alpha-Synuclein mRNA Translation in H4 Neuroglioblastoma Cells. [Related pubchem assays: 1829 (Project Summary), 1814 (Primary HTS)]; format: functional
[9] = system: H4; assay: Luminescence Cell-Based Dose Response HTS to Identify Activators of 5'UTR Stem-Loop Driven Prion Protein mRNA Translation in H4 Neuroglioblastoma Cells. [Related pubchem assays: 1829 (Project Summary), 1814 (Primary HTS)]; format: functional; conditions: Homo sapiens
[10] = Luminescence Cell-Based Dose Response HTS to Identify Activators of Luciferase Translation or Activity in H4 […] Cells. [Related pubchem assays: 1829 (Project Summary), 1814 (Primary HTS)]; format: functional

Chain of Cytochrome P450 2C9 (P11712 whole entry): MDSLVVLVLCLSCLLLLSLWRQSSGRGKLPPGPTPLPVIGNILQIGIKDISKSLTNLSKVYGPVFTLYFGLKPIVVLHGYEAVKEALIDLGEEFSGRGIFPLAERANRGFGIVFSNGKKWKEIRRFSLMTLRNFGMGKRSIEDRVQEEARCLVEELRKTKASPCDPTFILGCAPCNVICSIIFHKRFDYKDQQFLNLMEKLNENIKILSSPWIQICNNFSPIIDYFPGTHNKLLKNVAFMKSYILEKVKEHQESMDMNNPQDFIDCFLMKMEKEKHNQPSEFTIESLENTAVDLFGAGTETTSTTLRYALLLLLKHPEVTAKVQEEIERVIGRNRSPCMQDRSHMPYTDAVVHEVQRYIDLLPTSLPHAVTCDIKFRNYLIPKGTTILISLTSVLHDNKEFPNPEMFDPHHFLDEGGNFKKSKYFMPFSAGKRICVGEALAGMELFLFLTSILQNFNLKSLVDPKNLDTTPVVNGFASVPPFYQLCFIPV
Chain of Cytochrome P450 2D6 (P10635 whole entry): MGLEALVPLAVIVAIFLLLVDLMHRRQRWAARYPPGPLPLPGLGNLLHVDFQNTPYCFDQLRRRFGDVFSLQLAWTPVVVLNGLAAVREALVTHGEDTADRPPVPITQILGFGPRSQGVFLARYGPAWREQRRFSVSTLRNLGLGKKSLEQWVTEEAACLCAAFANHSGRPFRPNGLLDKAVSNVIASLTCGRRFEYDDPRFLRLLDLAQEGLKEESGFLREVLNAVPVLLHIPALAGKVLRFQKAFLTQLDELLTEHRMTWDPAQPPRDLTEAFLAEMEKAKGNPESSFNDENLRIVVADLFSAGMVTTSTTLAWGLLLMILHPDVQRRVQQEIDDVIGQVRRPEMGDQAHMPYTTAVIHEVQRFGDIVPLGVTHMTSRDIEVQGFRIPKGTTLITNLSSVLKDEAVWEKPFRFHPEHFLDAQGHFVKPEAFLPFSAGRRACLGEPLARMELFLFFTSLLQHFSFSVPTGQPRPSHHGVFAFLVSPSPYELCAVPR
Chain of Cytochrome P450 2C19 (P33261 whole entry): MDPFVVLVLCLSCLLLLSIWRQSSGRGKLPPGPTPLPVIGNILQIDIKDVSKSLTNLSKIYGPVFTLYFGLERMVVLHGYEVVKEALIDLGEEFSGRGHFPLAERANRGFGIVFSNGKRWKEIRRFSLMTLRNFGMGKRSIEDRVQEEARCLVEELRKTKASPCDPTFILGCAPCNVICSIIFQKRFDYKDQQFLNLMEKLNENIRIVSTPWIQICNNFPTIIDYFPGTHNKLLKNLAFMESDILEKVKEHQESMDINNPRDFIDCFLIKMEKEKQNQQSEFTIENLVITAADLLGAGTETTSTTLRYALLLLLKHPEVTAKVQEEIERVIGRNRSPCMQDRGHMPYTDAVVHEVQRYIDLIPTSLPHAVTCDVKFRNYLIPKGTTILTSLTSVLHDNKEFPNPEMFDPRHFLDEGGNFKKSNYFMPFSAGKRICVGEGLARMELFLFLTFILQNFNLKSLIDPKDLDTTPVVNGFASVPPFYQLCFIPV
Chain of Cytochrome P450 3A4 (P08684 whole entry): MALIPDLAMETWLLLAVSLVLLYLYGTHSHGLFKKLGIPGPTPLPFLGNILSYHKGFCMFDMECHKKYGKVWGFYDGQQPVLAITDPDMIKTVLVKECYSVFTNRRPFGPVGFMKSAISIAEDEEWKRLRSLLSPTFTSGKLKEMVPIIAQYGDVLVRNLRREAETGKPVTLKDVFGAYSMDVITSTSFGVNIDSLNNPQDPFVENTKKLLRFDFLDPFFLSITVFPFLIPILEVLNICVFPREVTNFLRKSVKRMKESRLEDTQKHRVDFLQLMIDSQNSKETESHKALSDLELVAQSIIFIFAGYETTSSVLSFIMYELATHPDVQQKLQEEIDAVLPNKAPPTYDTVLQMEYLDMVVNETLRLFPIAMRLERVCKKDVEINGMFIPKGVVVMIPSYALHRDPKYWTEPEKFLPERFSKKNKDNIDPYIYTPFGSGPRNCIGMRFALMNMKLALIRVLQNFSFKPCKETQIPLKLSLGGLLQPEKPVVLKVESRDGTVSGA

In the case of `CC(N=C1NS(=O)(=O)c2ccccc21)C(=O)N1CCc2ccccc2C1` (configuration not stated), the IC50 [1] is reported as > 47.1 µM (inactive) and the EC50 [2] is reported as > 53 µM (inactive).
In the case of `O=C(Nc1ccccc1N1CCOCC1)c1ccc([N+](=O)[O-])cc1`, the AC50 [3] is reported as 10 µM (inconclusive) and the AC50 [4] is reported as 15.8 µM (inconclusive).
With `Cc1ccc(C)c(Cn2cnc3c(cnn3C(C)(C)C)c2=O)c1` the AC50 [5] was 794 nM (inconclusive) and the AC50 [6] was 10 µM (inconclusive).
In the case of `COC(=O)[C@@]1(Cc2ccc(OC)cc2)[C@H]2c3cc(C(=O)N4CCCC4)n(CCN4CNCC4=O)c3C[C@H]2CN1C(=O)c1ccccc1`, the AC50 [6] is reported as 31.6 µM (inconclusive).
For `COc1ccc(CNC(=O)CN2CCN(S(=O)(=O)c3cc(Br)ccc3Br)CC2)cc1OC`, the IC50 [1] was > 47.1 µM (inactive) and the EC50 [2] was > 53 µM (inactive).
For `Oc1c(CN2CCOCC2)cc(-c2ccccc2)cc1CN1CCOCC1`, the AC50 [3] was 28.2 µM (inconclusive) and the AC50 [7] was 11.2 µM (inconclusive).
With `O=C(CSc1nnc(Cn2nnc3ccccc32)o1)Nc1cccc(Cl)c1` the AC50 [3] was 15.8 µM (inconclusive) and the AC50 [7] was 22.4 µM (inconclusive).
For `Cc1ccccc1C(=O)c1cccn1CC(=O)NCc1ccco1`, the AC50 [6] was 10 µM (inconclusive).
In the case of `Cc1ccc(Oc2ccccc2/C=C2\SC(=O)N(C)C2=O)cc1`, the AC50 [4] is reported as 8.91 µM (inconclusive).
In the case of `CCC(=O)Nc1nnc(C(C)(C)C)s1`, the AC50 [6] is reported as 17.8 µM (inconclusive).
With `COC(=O)c1ccc(C2OCC(C)(C)CO2)cc1` the EC50 [8] was > 120 µM (not active), the EC50 [9] was 24.9 µM (active) and the EC50 [10] was 35.1 µM (active).
In the case of `O=C(Oc1ccc(S(=O)(=O)F)cc1F)c1ccccc1Cl`, the AC50 [6] is reported as 5.01 µM (inconclusive).
For `C/C(=N/C1CC1)C1=C(O)c2ccccc2C1=O`, the EC50 [8] was > 120 µM (not active), the EC50 [9] was 6.75 µM (active) and the EC50 [10] was 20.2 µM (active).
With `O=C(CSc1nc2ccccc2c(=O)n1NC(=O)Cc1ccccc1)NCc1ccccc1Cl` the AC50 [4] was 2.82 µM (inconclusive).
For `Cc1noc(C)c1-c1nc(N2CCN(C)CC2)c2ccccc2n1`, the AC50 [4] was 39.8 µM (inconclusive).
With `CN(Cc1ccccc1)C(=O)c1cccc(NC(=O)Cc2ccc(NC(=O)C3CCCN(C(=O)CCc4ccccc4)C3)cc2)c1` (configuration not stated) the IC50 [1] was > 47.1 µM (inactive) and the EC50 [2] was > 53 µM (inactive).
For `Cc1cc(NC(=O)Cn2nc3c(cc2=O)CCCC3)ccc1Br`, the IC50 [1] was > 47.1 µM (inactive) and the EC50 [2] was > 53 µM (inactive).
In the case of `Cc1cc(OCC(=O)C(C)(C)C)c2c(C)c(C)c(=O)oc2c1`, the IC50 [1] is reported as > 47.1 µM (inactive) and the EC50 [2] is reported as > 53 µM (inactive).
In the case of `C=CC[C@@H]1C=C[C@H](Oc2ccc(C)cc2)[C@H](COC(=O)NCc2cccc3ccccc23)O1`, the AC50 [3] is reported as 3.98 µM (inconclusive) and the AC50 [4] is reported as 7.94 µM (inconclusive).
For `O=C(Nc1ccccc1)N1CCCC2(CCN(C(=O)c3csnn3)CC2)C1`, the AC50 [4] was 39.8 µM (inconclusive), the AC50 [7] was 3.98 µM (inconclusive) and the AC50 [6] was 25.1 µM (inconclusive).
For `O=C(CC(=O)NN=C1CCCC1)NCCc1ccccc1`, the AC50 [7] was 25.1 µM (inconclusive).
In the case of `COc1cc(/C=C2\CCC(C)C3=C(c4cc(OC)c(OC)c(OC)c4)C(C#N)=C(N)OC32)cc(OC)c1OC` (configuration not stated), the EC50 [2] is reported as > 53 µM (inactive).
In the case of `COC(=O)[C@@]1(Cc2ccc(OC)cc2)[C@H]2c3cc(C(=O)N4CCCC4)n(Cc4c(CO)ncc(C)c4O)c3C[C@H]2CN1C(=O)c1ccccc1`, the AC50 [4] is reported as 20 µM (inconclusive) and the AC50 [6] is reported as 25.1 µM (inconclusive).
In the case of `CCOC(=O)c1c(NC(=O)CCCN2CCOCC2)sc2c1CC(C)(C)OC2`, the AC50 [3] is reported as 0.282 µM (inconclusive) and the AC50 [7] is reported as 39.8 µM (inconclusive).
